Here are results for nine molecules from ChEMBL document CHEMBL1201862, “PubChem BioAssay data set” (2004).

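Where inhibition never reached the appropriate level, the endpoint shown equals the highest concentration tested. Otherwise, values were interpolated linearly from a five-concentration, 48-hour dose response in 96-well plates. At the GI50, growth is halved.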 The source made the active and inactive calls. Cut-off read from the data, not from the text of the source: active = GI50 up to about 1.1 µM and inactive = higher. Some results are limits rather than exact numbers.

Assay in all cases: DTP human tumour cell line panel, 48 h
Test [1] has as its system XF498.
Test [2] has as its system KM-20L2.
Test [3] concerns LXFL 529.
Test [4] concerns Malme-3M.
Test [5] concerns TK-10.
In test [6] the test system is DU-145.
The subject of test [7] is NCI/ADR-RES.
Test [8] has as its system RXF 631.

`CN1CN(C(=O)N2CN(C)C(=O)N(C)C2)CN(C)C1=O`: the GI50 in test [1], in test [2], in test [3] and in test [4] was > 100 µM (inactive) each time.

With `O=C(O)C12CC3CC(C1)C2C=C3P(=O)(O)O` (stereo unspecified), the GI50 in test [5], in test [2], in test [3] and in test [4] was > 100 µM (inactive) throughout.

For `CC(=O)OC1CC[C@@]2(C)C(=CC[C@@H]3[C@@H]2CC[C@]2(C)Nc4nn(S(C)(=O)=O)cc4C[C@@H]32)C1` (stereo partly specified), the GI50 in test [6] is 35.9 µM (inactive); in test [4], 27.3 µM (inactive); in test [7], 29.9 µM (inactive).

`CCOC(=O)C1=NN(c2ccccc2)C2=CC(C)=NN(C)C(=S)N21`: the GI50 in test [5], in test [6] and in test [7] was > 100 µM (inactive) throughout.

For `O=C(/N=N/c1cc(Cl)ccc1Cl)NNc1cc(Cl)ccc1Cl`, the results for the GI50 in test [6], in test [4] and in test [7] were 30.3 µM (inactive), 23.1 µM (inactive) and 22 µM (inactive), respectively.

Take `Cc1cc(O)nc(NN2C(Cl)C(=O)C2c2c(O)ccc3ccccc23)n1` (stereo unspecified): the figures for the GI50 in test [5], in test [2] and in test [3] were 37.2 µM (inactive), 22.6 µM (inactive) and 15.2 µM (inactive), respectively.

Turning to `CCP(=S)(CC)CCl`, the GI50 in test [5], in test [6] and in test [7] was > 100 µM (inactive) each time.

On to `COc1ccc(C(=O)Cc2cc(OC)ccc2OC)cc1`, for which the GI50 in test [5], in test [8], in test [2], in test [3] and in test [4] was > 100 µM (inactive) in each case.

With `CC(=O)OC1CC2(O)C(CCC3(C)C(c4ccc(=O)oc4)CCC32O)C2(C)CCC(O)C=C12` (stereo unspecified), the GI50 is 0.0381 µM (active) in test [1], 0.0219 µM (active) in test [2] and 0.0125 µM (active) in test [7].
